Reference: patent publication US20230381159A1 (priority 2020, published 2023)
Where two headings read alike, the source gives them in different places.

Experiments:
SARS-CoV-S1S2-hACE2 PPI = SARS-CoV-S1S2-hACE2 PPI (Severe acute respiratory syndrome coronavirus, UniProt P59594); assay: biochemical; format: binding, SARS-CoV / human
[1] = tested on: SARS-CoV-2 pseudovirus (BacMam) entry into ACE2 expressing host cells (HEK293T); assay: microbe, parasite or virus in culture; format: cell-based, SARS-CoV-2 pseudovirus / human cells; settings: Severe acute respiratory syndrome-related coronavirus, HEK-293T, read-out: IC50, inhibition of pseudovirus entry (BacMam)
SARS-CoV-2-RBD-hACE2 PPI = SARS-CoV-2-RBD-hACE2 PPI (Severe acute respiratory syndrome coronavirus 2, UniProt P0DTC2); assay: biochemical; format: binding, SARS-CoV-2 / human
[2] = read-out: IC50, SARS-CoV S-hACE2 assay
[3] = read-out: IC50, SARS-CoV-2 S-ACE2 assay

Work on `O=C(Nc1ccc(-c2ccc(C(=O)Nc3cccc4cc(S(=O)(=O)O)ccc34)cc2)cc1)c1ccc([N+](=O)[O-])cc1` [Compound A2, 5-(4′-(4-Nitrobenzamido)biphenyl-4-ylcarboxamido)naphthalene-2-sulfonic acid] yielded an IC50 (SARS-CoV-S1S2-hACE2 PPI) of 3.4 µM and an IC50 [1] of 5.6 µM.

For `O=C(Nc1ccc2cc(S(=O)(=O)O)cc(O)c2c1)c1ccc(-c2ccc(C(=O)Nc3ccc4cc(S(=O)(=O)O)cc(O)c4c3)cc2)cc1` [Compound A5], the IC50 (SARS-CoV-2-RBD-hACE2 PPI; IC50, SARS-CoV-2 S-ACE2 assay) was 0.16 µM and the IC50 (SARS-CoV-S1S2-hACE2 PPI) was 0.24 µM.

`Nc1c(/N=N/c2ccc(-c3ccc(/N=N/c4cc(S(=O)(=O)O)c5ccccc5c4N)cc3)cc2)cc(S(=O)(=O)O)c2ccccc12` [Congo red] gave an IC50 (SARS-CoV-S1S2-hACE2 PPI; [2]) of 3.9 µM and an IC50 [1] of 20 µM.

Work on `Cc1cc(-c2ccc(/N=N/c3ccc4c(S(=O)(=O)O)cc(S(=O)(=O)O)c(N)c4c3O)c(C)c2)ccc1/N=N/c1ccc2c(S(=O)(=O)O)cc(S(=O)(=O)O)c(N)c2c1O` [Evans blue] yielded an IC50 (SARS-CoV-S1S2-hACE2 PPI; [2]) of 1.3 µM.

Compound `CCOc1ccc(N=Nc2ccc(-c3ccc(N=Nc4c(O)ccc5cc(S(=O)(=O)O)cc(S(=O)(=O)O)c45)c(C)c3)cc2C)cc1` [calcomine scarlet 3B] has an IC50 (SARS-CoV-2-RBD-hACE2 PPI; [3]) of 4.25 µM and an IC50 (SARS-CoV-S1S2-hACE2 PPI; [2]) of 9.9 µM.

For `Nc1ccc(N=Nc2ccc(-c3ccc(N=Nc4c(S(=O)(=O)O)cc5cc(S(=O)(=O)O)c(N=Nc6ccccc6)c(O)c5c4N)cc3)cc2)c(N)c1` [chlorazol black], the IC50 (SARS-CoV-2-RBD-hACE2 PPI; [3]) was 2.57 µM.

`Nc1ccc2cc(S(=O)(=O)O)cc(O)c2c1N=Nc1ccc(-c2ccc(N=Nc3c(N)ccc4cc(S(=O)(=O)O)cc(O)c34)cc2)cc1` [direct violet 1] gave an IC50 (SARS-CoV-S1S2-hACE2 PPI; [2]) of 2.6 µM.
